From patent publication US9079821B2, “Quinone based nitric oxide donating compounds” (NICOX S.A., priority 2011, dated 2015)

Assay: Pharmacokinetic profile in rats (blood 15N-nitrite levels)
Type: in vivo, rat
Settings: cannulated SD rats, blood, oral 30 mg/kg
Description: The absorption and in vivo NO-donating property of the compounds of the invention were assessed by the evaluation of blood ^15N-nitrite levels following oral administration.
Tested Compounds: • 5-(2,4,5-trimethyl-3,6-dioxocyclohexa-1,4-dienylpentyl nitrate-nitrogen-15 which corresponds to compound (1) containing nitrogen-15 (^15N-Compound (1)); • 5-(4,5-dimethoxy-2-methyl-3,6-dioxocyclohexa-1,4-dienyl)pentyl nitrate-nitrogen-15 which corresponds to compound (2) containing nitrogen-15 (^15N-Compound (2)); • 4-(2,4,5-trimethyl-3,6-dioxocyclohexa-1,4-dienyl)butyl nitrate-nitrogen-15 which corresponds to compound (3) containing nitrogen-15 (^15N-Compound (3)); • 4-(4,5-dimethoxy-2-methyl-3,6-dioxocyclohexa-1,4-dienyl)butyl nitrate-nitrogen-15 which corresponds to compound (4) containing nitrogen-15 (^15N-Compound (4)); • 10-(2,4,5-trimethyl-3,6-dioxocyclohexa-1,4-dienyl)decyl nitrate-nitrogen-15 which corresponds to compound (5) containing nitrogen-15 (^15N-Compound (5)); • 10-(4,5-dimethoxy-2-methyl-3,6-dioxocyclohexa-1,4-dienyl)decyl nitrate-nitrogen-15 which corresponds to compound (6) containing nitrogen-15 (^15N-Compound (6)); • 3-(3-(4,5-dimethoxy-2-methyl-3,6-dioxocyclohexa-1,4-dienyl)propoxy)propyl nitrate-nitrogen-15 which corresponds to compound (14) containing nitrogen-15 (^15N-Compound (14)); • 6-(2,4,5-trimethyl-3,6-dioxocyclohexa-1,4-dienyl)hexyl nitrate-nitrogen-15 which corresponds to compound (15) containing nitrogen-15 (^15N-Compound (15)); • 6-(4,5-dimethoxy-2-methyl-3,6-dioxocyclohexa-1,4-dienyl)hexyl nitrate-nitrogen-15 which corresponds to compound (16) containing nitrogen-15 (^15N-Compound (16)); • 11-(4,5-dimethoxy-2-methyl-3,6-dioxocyclohexa-1,4-dienyl)-undecane-1,2-diyl dinitrate-nitrogen-15 which corresponds to compound (17) containing nitrogen-15 (^15N-Compound (17)); • 8-(5-methoxy-2,4-dimethyl-3,6-dioxocyclohexa-1,4-dienyl)octyl nitrate-nitrogen—which corresponds to compound (19) containing nitrogen-15 (^15N-Compound (19)); • 2-(3-(4,5-dimethoxy-2-methyl-3,6-dioxocyclohexa-1,4-dienyl)propoxy)ethyl nitrate-nitrogen-15 which corresponds to compound (20) containing nitrogen-15 (^15N-Compound (20)); • 6-(3-methyl-1,4-dioxo-1,4-dihydronaphthalen-2-yl)hexyl nitrate-nitrogen-15 which corresponds to compound (23) containing nitrogen-15 (^15N-Compound (23)); • 3-(3-(3-methyl-1,4-dioxo-1,4-dihydronaphthalen-2-yl)propoxy)propyl nitrate-nitrogen-15 which corresponds to compound (25) containing nitrogen-15 (^15N-Compound (25)); • 6-(5-methoxy-2,4-dimethyl-3,6-dioxocyclohexa-1,4-dienyl)hexyl nitrate-nitrogen-15 which corresponds to compound (28) containing nitrogen-15 (^15N-Compound (28)); • 6-(4-methoxy-2,5-dimethyl-3,6-dioxocyclohexa-1,4-dienyl)hexyl nitrate-nitrogen-15 which corresponds to compound (29) containing nitrogen-15 (^15N-Compound (29)); • 8-(4-methoxy-2,5-dimethyl-3,6-dioxocyclohexa-1,4-dienyl)octyl nitrate-nitrogen-15 which corresponds to compound (32) containing nitrogen-15 (^15N-Compound (32)); • 8-(2,4,5-trimethyl-3,6-dioxocyclohexa-1,4-dienyl)octyl nitrate-nitrogen-15 which corresponds to compound (34) containing nitrogen-15 (^15N-Compound (34)); • 5-isorbide mononitrate containing nitrogen-15 (5-ISM^15N).
Cannulated SD rats were orally treated with ^15N-Compounds (6) at 30 mg/kg, 5-ISM^15N (30 mg/kg), or ^15N-Compounds (1)-(5), 14)-(17), (19), (20), (23), (25), (28), (29), (32), (34) at 30 mg/kg. At each time point (5, 10, 15, 30, 60, 180, 360 and 1440 min) blood was taken using heparin to avoid blood clotting. Blood samples were immediately protein crushed. Samples were analyzed by LC-MS/MS.
In Table 7 are reported ^15N-nitrite blood levels following oral administration of SD rats with 5-ISM^15N (30 mg/kg) or with ^15N-labeled corresponding compounds of the invention (30 mg/kg).

Row | Structure (SMILES) | 15N-nitrite AUC0-24 | 15N-nitrite Tmax
1 | COC1=C(OC)C(=O)C(CCCOCCO[15N+](=O)[O-])=C(C)C1=O [^15N-Compound (20), 2-(3-(4,5-dimethoxy-2-methyl-3,6-dioxocyclohexa-1,4-dienyl)propoxy)ethyl nitrate-nitrogen-15] | 1154 µM·min | 1 h

Same assay, conditions: cannulated SD rats, blood, oral 30 mg/kg; read-out: 15N-nitrite Cmax

Row | Structure (SMILES) | Cmax
2 | COC1=C(OC)C(=O)C(CCCOCCO[N+](=O)[O-])=C(C)C1=O [^15N-Compound (20), 2-(3-(4,5-dimethoxy-2-methyl-3,6-dioxocyclohexa-1,4-dienyl)propoxy)ethyl nitrate-nitrogen-15] | 3580 ± 720 nM

Same assay, conditions: rat, in vivo, po, 30 mg/kg

Row | Structure (SMILES) | 15N-nitrite AUC0-24 | 15N-nitrite Tmax | Cmax
3 | CC1=C(C)C(=O)C(CCCCCO[N+](=O)[O-])=C(C)C1=O [^15N-Compound (1)] | 1248 µM·min | 1 h | 3350 ± 420 nM
4 | COC1=C(OC)C(=O)C(CCCCCO[15N+](=O)[O-])=C(C)C1=O [^15N-Compound (2), 5-(4,5-dimethoxy-2-methyl-3,6-dioxocyclohexa-1,4-dienyl)pentyl nitrate-nitrogen-15] | 1139 µM·min | 1 h | –
5 | COC1=C(OC)C(=O)C(CCCCCO[N+](=O)[O-])=C(C)C1=O [^15N-Compound (2), 5-(4,5-dimethoxy-2-methyl-3,6-dioxocyclohexa-1,4-dienyl)pentyl nitrate-nitrogen-15] | – | – | 1920 ± 250 nM
6 | CC1=C(C)C(=O)C(CCCCO[15N+](=O)[O-])=C(C)C1=O [^15N-Compound (3), 4-(2,4,5-trimethyl-3,6-dioxocyclohexa-1,4-dienyl)butyl nitrate-nitrogen-15] | 1404 µM·min | 1 h | –
7 | CC1=C(C)C(=O)C(CCCCO[N+](=O)[O-])=C(C)C1=O [^15N-Compound (3), 4-(2,4,5-trimethyl-3,6-dioxocyclohexa-1,4-dienyl)butyl nitrate-nitrogen-15] | – | – | 4820 ± 1100 nM
8 | COC1=C(OC)C(=O)C(CCCCO[N+](=O)[O-])=C(C)C1=O [^15N-Compound (4), 4-(4,5-dimethoxy-2-methyl-3,6-dioxocyclohexa-1,4-dienyl)butyl nitrate-nitrogen-15] | 832 µM·min | 0.25 h | 3330 ± 100 nM
9 | CC1=C(C)C(=O)C(CCCCCCCCCCO[15N+](=O)[O-])=C(C)C1=O [^15N-Compound (5), 10-(2,4,5-trimethyl-3,6-dioxocyclohexa-1,4-dienyl)decyl nitrate-nitrogen-15] | 1496 µM·min | 3 h | –
10 | CC1=C(C)C(=O)C(CCCCCCCCCCO[N+](=O)[O-])=C(C)C1=O [^15N-Compound (5), 10-(2,4,5-trimethyl-3,6-dioxocyclohexa-1,4-dienyl)decyl nitrate-nitrogen-15] | – | – | 1890 ± 420 nM
11 | COC1=C(OC)C(=O)C(CCCOCCCO[15N+](=O)[O-])=C(C)C1=O [^15N-Compound (14), 3-(3-(4,5-dimethoxy-2-methyl-3,6-dioxocyclohexa-1,4-dienyl)propoxy)propyl nitrate-nitrogen-15] | 694 µM·min | 1 h | –
12 | COC1=C(OC)C(=O)C(CCCOCCCO[N+](=O)[O-])=C(C)C1=O [^15N-Compound (14), 3-(3-(4,5-dimethoxy-2-methyl-3,6-dioxocyclohexa-1,4-dienyl)propoxy)propyl nitrate-nitrogen-15] | – | – | 1520 ± 110 nM
13 | CC1=C(C)C(=O)C(CCCCCCO[15N+](=O)[O-])=C(C)C1=O [^15N-Compound (15), 6-(2,4,5-trimethyl-3,6-dioxocyclohexa-1,4-dienyl)hexyl nitrate-nitrogen-15] | 2135 µM·min | 3 h | –
14 | CC1=C(C)C(=O)C(CCCCCCO[N+](=O)[O-])=C(C)C1=O [^15N-Compound (15), 6-(2,4,5-trimethyl-3,6-dioxocyclohexa-1,4-dienyl)hexyl nitrate-nitrogen-15] | – | – | 3650 ± 580 nM
15 | COC1=C(OC)C(=O)C(CCCCCCO[N+](=O)[O-])=C(C)C1=O [^15N-Compound (16), 6-(4,5-dimethoxy-2-methyl-3,6-dioxocyclohexa-1,4-dienyl)hexyl nitrate-nitrogen-15] | 1559 µM·min | 3 h | 2930 ± 490 nM
16 | COC1=C(OC)C(=O)C(CCCCCCCCCC(CO[N+](=O)[O-])O[N+](=O)[O-])=C(C)C1=O (stereo not drawn) [^15N-Compound (17), 11-(4,5-dimethoxy-2-methyl-3,6-dioxocyclohexa-1,4-dienyl)-undecane-1,2-diyl dinitrate-nitrogen-15] | 1666 µM·min | 3 h | 2060 ± 120 nM
17 | CC1=C(CCCCCCO[15N+](=O)[O-])C(=O)c2ccccc2C1=O [^15N-Compound (23), 6-(3-methyl-1,4-dioxo-1,4-dihydronaphthalen-2-yl)hexyl nitrate-nitrogen-15] | 2586 µM·min | 3 h | –
18 | CC1=C(CCCCCCO[N+](=O)[O-])C(=O)c2ccccc2C1=O [^15N-Compound (23), 6-(3-methyl-1,4-dioxo-1,4-dihydronaphthalen-2-yl)hexyl nitrate-nitrogen-15] | – | – | 4050 ± 530 nM
19 | CC1=C(CCCOCCCO[N+](=O)[O-])C(=O)c2ccccc2C1=O [^15N-Compound (25), 3-(3-(3-methyl-1,4-dioxo-1,4-dihydronaphthalen-2-yl)propoxy)propyl nitrate-nitrogen-15] | 2010 µM·min | 3 h | 2890 ± 690 nM
20 | COC1=C(C)C(=O)C(C)=C(CCCCCCO[N+](=O)[O-])C1=O [^15N-Compound (28), 6-(5-methoxy-2,4-dimethyl-3,6-dioxocyclohexa-1,4-dienyl)hexyl nitrate-nitrogen-15] | 1199 µM·min | 1 h | 3740 ± 420 nM
21 | COC1=C(C)C(=O)C(CCCCCCO[N+](=O)[O-])=C(C)C1=O [^15N-Compound (29), 6-(4-methoxy-2,5-dimethyl-3,6-dioxocyclohexa-1,4-dienyl)hexyl nitrate-nitrogen-15] | 1309 µM·min | 1 h | 2550 ± 220 nM
22 | COC1=C(C)C(=O)C(CCCCCCCCO[N+](=O)[O-])=C(C)C1=O [^15N-Compound (32), 8-(4-methoxy-2,5-dimethyl-3,6-dioxocyclohexa-1,4-dienyl)octyl nitrate-nitrogen-15] | 1892 µM·min | 3 h | 1980 ± 570 nM
23 | CC1=C(C)C(=O)C(CCCCCCCCO[15N+](=O)[O-])=C(C)C1=O [^15N-Compound (34), 8-(2,4,5-trimethyl-3,6-dioxocyclohexa-1,4-dienyl)octyl nitrate-nitrogen-15] | 1477 µM·min | 3 h | –
24 | CC1=C(C)C(=O)C(CCCCCCCCO[N+](=O)[O-])=C(C)C1=O [^15N-Compound (34), 8-(2,4,5-trimethyl-3,6-dioxocyclohexa-1,4-dienyl)octyl nitrate-nitrogen-15] | – | – | 2800 ± 250 nM
